Results reported in patent US5886172A, “Carbapenem-3-carboxylic acid ester derivatives” (Lederle (Japan) Ltd., priority 1995, dated 1999).
Converted amounts (≈) assume the structure as drawn. Blank lines part the entries; values can stand above or below the compound they belong to.

Tests used:
[1] = system: B. subtilis ATCC 6633; assay: Antibacterial activity, agar plate dilution method (MIC); format: cell-based; conditions: Bacillus subtilis, ATCC6633, 37° C., 18 hours
Procedure: (§1) Antibacterial activity was tested by using an agar plate dilution method in accordance with the standard method of the Japanese Chemotherapy Society [Chemotherapy, vol. 29, 76-79 (1981)].
(§2) Mueller-Hinton (MH) agar liquid media of the test microorganisms were cultured overnight at 37° C. and the resultant culture media were diluted with a buffered saline gelatin (BSG) solution to contain approximately 10^5 cells of the test microorganisms per milliliter. Then, about 5 microliters each of the diluted solutions were inoculated on MH agar media containing the test compound by using a microplanter.
(§3) The test microorganism strains used in this test were all standard ones. The test compound used herein was Compound (22) obtained in Preparation 6, i.e., the compound of formula (II), which is the active metabolite of the compounds of formula (I).

[2] = system: E. aerogenes ATCC 13048; assay: as above; format: cell-based; conditions: Klebsiella aerogenes, ATCC13048, 37° C., 18 hours
Procedure: as §1, §2, §3

[3] = system: E. cloacae 963; assay: as above; format: cell-based; conditions: Enterobacter cloacae, 37° C., 18 hours
Procedure: as §1, §2, §3

[4] = system: E. coli K-12 C600; assay: as above; format: cell-based; conditions: Escherichia coli, K12C600, 37° C., 18 hours
Procedure: as §1, §2, §3

[5] = system: E. coli NIHJ JC-2; assay: as above; format: cell-based; conditions: Escherichia coli, NIHJJC2, 37° C., 18 hours
Procedure: as §1, §2, §3

[6] = system: K. pneumoniae PCI-602; assay: as above; format: cell-based; conditions: Klebsiella pneumoniae, PCI602, 37° C., 18 hours
Procedure: as §1, §2, §3

[7] = system: M. luteus ATCC 9341; assay: as above; format: cell-based; conditions: Micrococcus luteus, ATCC9341, 37° C., 18 hours
Procedure: as §1, §2, §3

[8] = system: M. morganii IFO 3848; assay: as above; format: cell-based; conditions: Morganella morganii, IFO3848, 37° C., 18 hours
Procedure: as §1, §2, §3

[9] = system: P. mirabilis IFO 3849; assay: as above; format: cell-based; conditions: Proteus mirabilis, IFO3849, 37° C., 18 hours
Procedure: as §1, §2, §3

[10] = system: P. rettgeri IFO 3850; assay: as above; format: cell-based; conditions: Providencia rettgeri, IFO3850, 37° C., 18 hours
Procedure: as §1, §2, §3

[11] = system: P. vulgaris HX-19; assay: as above; format: cell-based; conditions: Proteus vulgaris, HX19, 37° C., 18 hours
Procedure: as §1, §2, §3

[12] = system: P. vulgaris OX-19; assay: as above; format: cell-based; conditions: Proteus vulgaris, OX19, 37° C., 18 hours
Procedure: as §1, §2, §3

[13] = system: S. aureus FDA209P JC-1; assay: as above; format: cell-based; conditions: Staphylococcus aureus, 37° C., 18 hours
Procedure: as §1, §2, §3

[14] = system: S. aureus MS353; assay: as above; format: cell-based; conditions: Staphylococcus aureus, 37° C., 18 hours
Procedure: as §1, §2, §3

[15] = system: S. aureus Terajima; assay: as above; format: cell-based; conditions: Staphylococcus aureus, 37° C., 18 hours
Procedure: as §1, §2, §3

[16] = system: S. enteritidis G14; assay: as above; format: cell-based; conditions: Salmonella enterica, 37° C., 18 hours
Procedure: as §1, §2, §3

[17] = system: S. marcescens IAM 1184; assay: as above; format: cell-based; conditions: Serratia marcescens, IAM1184, 37° C., 18 hours
Procedure: as §1, §2, §3

[18] = system: S. paratyphi 1015; assay: as above; format: cell-based; conditions: Salmonella enterica, 18 h
Procedure: as §1, §2, §3

[19] = system: S. pyogenes Cook; assay: as above; format: cell-based; conditions: Streptococcus pyogenes, 37° C., 18 hours
Procedure: as §1, §2, §3

[20] = system: S. schottmuelleri 8006; assay: as above; format: cell-based; conditions: 37° C., 18 hours
Procedure: as §1, §2, §3

[21] = system: S. typhi 901; assay: as above; format: cell-based; conditions: Salmonella enterica, 18 h
Procedure: as §1, §2, §3

[22] = system: S. typhimurium 11D971; assay: as above; format: cell-based; conditions: Salmonella enterica, 37° C., 18 hours
Procedure: as §1, §2, §3

[23] = Stability Test (storage stability, residual activity by HPLC); format: physicochemical; conditions: for Residual activity, initial day: assumed to be 100%; for Residual activity, 1 month: 43800 min; for Residual activity, 3 months: 131400 min; for Retention of potency on storage: conclusion from Table 2; for Residual activity, 1 month / remaining at 730 h: 1 month
Procedure: Storage stability of (1-methylcyclohexane-carboxy)methyl (1R,5S,6S)-2-[(1-(1,3-thiazolin-2-yl)azetidin-3-yl)thio]-6-[(R)-1-hydroxyethyl]-1-methyl-carbapen-2-em-3-carboxylate [Compound (24)] was tested in comparison with its amorphous form and (cyclohexanecarboxy)methyl (1R,5S,6S)-2-[(1-(1,3-thiazolin-2-yl)azetidin-3-yl)thio]-6-[(R)-1-hydroxyethyl]-1-methyl-carbapen-2-em-3-carboxylate [Compound (C)], which is disclosed in European Patent Publication 632,039 A1.
Each compound in an amount of 20 mg was put in a glass bottle, and left to stand for 3 months in a constant-temperature chamber at 40° C. and at 40° C. /75% of humidity. The activity of each compound was assayed by HPLC after 1 month and 3 months, respectively. Assuming the activity at the beginning (initial day) to be 100%, the decrease in the activity is shown by percent residual activity in Table 2.

[24] = 40° C., HPLC, initial day = 100%
[25] = 40° C., 3 months, HPLC, initial day = 100%
[26] = solid storage, 40° C./75% humidity, HPLC, initial day = 100%

SMILES: C[C@@H](O)[C@H]1C(=O)N2C(C(=O)O)=C(SC3CN(C4=NCCS4)C3)[C@H](C)[C@H]12 [Compound (22), (1R,5S,6S)-2-[(1-(thiazolin-2-yl)azetidin-3-yl)thio]-6-[(R)-1-hydroxyethyl]-1-methyl-carbapen-2-em-3-carboxylic acid]
MIC [1]: 0.025 mg/L (≈ 0.0652 µM) | MIC [2]: 0.1 mg/L (≈ 0.261 µM) | MIC [3]: 0.05 mg/L (≈ 0.13 µM) | MIC [4]: 0.1 mg/L (≈ 0.261 µM) | MIC [5]: 0.013 mg/L (≈ 0.0339 µM) | MIC [6]: 0.013 mg/L (≈ 0.0339 µM) | MIC [7]: 0.2 mg/L (≈ 0.522 µM) | MIC [8]: 0.39 mg/L (≈ 1.02 µM) | MIC [9]: 0.39 mg/L (≈ 1.02 µM) | MIC [10]: 0.39 mg/L (≈ 1.02 µM) | MIC [11]: 0.1 mg/L (≈ 0.261 µM) | MIC [12]: 0.1 mg/L (≈ 0.261 µM) | MIC [13]: 0.013 mg/L (≈ 0.0339 µM) | MIC [14]: ≤ 0.006 mg/L | MIC [15]: ≤ 0.006 mg/L | MIC [16]: 0.39 mg/L (≈ 1.02 µM) | MIC [17]: 0.05 mg/L (≈ 0.13 µM) | MIC [18]: 0.05 mg/L (≈ 0.13 µM) | MIC [19]: ≤ 0.006 mg/L | MIC [20]: 0.025 mg/L (≈ 0.0652 µM) | MIC [21]: ≤ 0.006 mg/L | MIC [22]: 0.025 mg/L (≈ 0.0652 µM)

Residual activity, initial day ([23]; 40° C./75% humidity): 100% | Residual activity, 1 month [23, 24]: 67.5% | Residual activity, 3 months [23, 25]: 36.8% | Residual activity, initial day ([23]; 40° C.): 100% | Retention of potency on storage ([23]; listed as amorphous form): rapidly loses its potency
SMILES: C[C@@H](O)[C@H]1C(=O)N2C(C(=O)OCOC(=O)C3(C)CCCCC3)=C(SC3CN(C4=NCCS4)C3)[C@H](C)[C@H]12 [Compound (24) (Amorphous), (1-methylcyclohexane-carboxy)methyl (1R,5S,6S)-2-[(1-(1,3-thiazolin-2-yl)azetidin-3-yl)thio]-6-[(R)-1-hydroxyethyl]-1-methyl-carbapen-2-em-3-carboxylate]

Residual activity, initial day ([23]; 40° C./75% humidity): 100% | Residual activity, 1 month [23, 24]: 99.4% | Residual activity, 3 months [23, 25]: 99.2% | Residual activity, initial day ([23]; 40° C.): 100% | remaining at 730 h [23, 26]: 98.9%
SMILES: C[C@@H](O)[C@H]1C(=O)N2C(C(=O)OCOC(=O)C3(C)CCCCC3)=C(SC3CN(C4=NCCS4)C3)[C@H](C)[C@H]12 [Compound (24) (Crystalline), (1-methylcyclohexane-carboxy)methyl (1R,5S,6S)-2-[(1-(1,3-thiazolin-2-yl)azetidin-3-yl)thio]-6-[(R)-1-hydroxyethyl]-1-methyl-carbapen-2-em-3-carboxylate]
Retention of potency on storage ([23]; listed as crystalline form of Compound (24)): retains its potency over a long period of time

Residual activity, initial day ([23]; 40° C./75% humidity): 100% | Residual activity, initial day ([23]; 40° C.): 100% | remaining at 730 h [23, 26]: 73.7% | remaining at 730 h ([23]; solid storage, 40° C., HPLC, initial day = 100%): 98.9% | remaining at 2190 h ([23]; solid storage, 40° C., 3 months, HPLC, initial day = 100%): 94.2%
SMILES: C[C@@H](O)[C@H]1C(=O)N2C(C(=O)OCOC(=O)C3CCCCC3)=C(SC3CN(C4=NCCS4)C3)[C@H](C)[C@H]12 [Compound (C) (Crystalline), (cyclohexanecarboxy)methyl (1R,5S,6S)-2-[(1-(1,3-thiazolin-2-yl)azetidin-3-yl)thio]-6-[(R)-1-hydroxyethyl]-1-methyl-carbapen-2-em-3-carboxylate, reference compound]
